Experimental data as given in patent US20250170155A1, “NUCLEOSIDE DERIVATIVES AND PRODRUGS THEREOF HAVING VIRAL GROWTH INHIBITORY ACTION” (Shionogi & Co., Ltd., priority 2021, published 2025).

What was measured:
Format in all cases: cell-based
[1] = system: influenza virus (A/WSN/33 (H1N1) strain); assay: CPE suppression effect confirmation test (influenza virus, RPMI 2650 cells), antiviral activity; conditions: for EC50: read-out: Influenza EC50 (50% CPE inhibitory concentration), A/WSN/33 (H1N1), 3 to 6 days
[2] = Cytotoxic activity evaluation, RPMI 2650 cells; conditions: human, no virus, 3 to 6 days
Experimental: (§1) <Operation Procedure (Cytotoxic Activity Evaluation)>
On the day before the compound treatment, cells prepared to an appropriate number were seeded in a 96 well plate at 100 μL/well. Thereafter, the cells were cultured in a CO2 incubator at 37° C. • Preparation of 2 μg/mL trypsin/0.5% BSA/MEM
Same as those described in the section for evaluation of antiviral activity • Dilution and dispensing of test substance
A 3- to 5-fold serial dilution series of test substances was prepared in DMSO in advance, and diluted with 2 μg/mL trypsin/0.5% BSA/MEM so that the final concentration of DMSO was 0.5% (100 to 200 μL/well). The cells were washed with MEM, and then cultured in a test substance-added medium for 3 to 6 days. Double measurement was performed for each drug. • Dispensing of resazurin solution
Same as those described in the section for evaluation of antiviral activity • Measurement of fluorescence intensity
(§2) Same as those described in the section for evaluation of antiviral activity
[formula] [formula] • Calculation of Selectivity Index (SI)

[3] = Cytotoxic activity evaluation, Vero E6/TMPRSS2 cells; conditions: African green monkey, no virus
Experimental: as §1
A 3- to 5-fold serial dilution series of test substances was prepared in DMSO, diluted with 2% FBS/MEM so that the concentration of DMSO was 2%, and dispensed into a 96 well plate (50 μL/well, DMSO final concentration 0.5%). • Dilution and dispensing of cells
The cells prepared to an appropriate number were seeded at 100 μL/well to the plate into which the test substance was dispensed. Thereafter, the cells were cultured in a CO2 incubator at 37° C. for 3 days. • Dispensing of CellTiter-Glo (registered trademark) 2.0 Reagent
Same as those described in the section for evaluation of antiviral activity • Measurement of luminescence intensity
as §2
Excel, TIBCO Spotfire, or a program having equivalent calculation processing capability based on the following calculation formula.

[4] = system: SARS-CoV-2 (hCoV-19/Japan/TY/WK-521/2020 strain); assay: CPE suppression effect confirmation test (SARS-CoV-2, Vero E6/TMPRSS2 cells), antiviral activity; conditions: for EC50: Severe acute respiratory syndrome coronavirus 2, VeroE6/TMPRSS2, 72 h, read-out: SARS-CoV-2 EC50 (50% CPE inhibitory concentration), 3 days culture

SMILES	Influenza SI (Selectivity Index) [1]	EC50 [1] [µM]	CC50 [2] [µM]	CC50 at 3 days [3] [µM]	SARS-CoV-2 SI (Selectivity Index) [4]	EC50 [4] [µM]
Nc1ncnn2c([C@@H]3N[C@H](CO)[C@@H](O)[C@H]3O)cc(F)c12 [Compound I-006]	17	0.316	5.38			
Nc1ncnc2c([C@@H]3N[C@H](CO)[C@@H](O)[C@H]3O)ccn12 [Compound I-012]	>281	1.78	> 500			
Nc1ncnc2c([C@@H]3O[C@H](CO)[C@@H](O)[C@H]3O)ccn12 [Compound I-014]	69.7	0.188	13.1			
Nc1ncnn2c([C@@H]3N[C@H](CO)[C@@H](O)[C@H]3O)cc(-c3cccnc3)c12 [Compound I-041]	>76.2	5.56	> 500			
Cl.Nc1ncnn2c([C@@H]3N[C@H](CO)[C@@H](O)[C@H]3O)cc(-c3ccn[nH]3)c12 [Compound I-029]				316	9.01	34.7
Nc1nc(F)nn2c([C@@H]3N[C@H](CO)[C@@H](O)[C@H]3O)ccc12 [Compound I-004]	>2.06	243	> 500			
Nc1ncnc2c([C@@H]3N[C@H](CO)[C@@H](O)[C@H]3O)cnn12 [WO2006002231 Example 13_9-4, reference compound]	4.69	87.8				
Nc1ncnn2c([C@@H]3N[C@H](CO)[C@@H](O)C3(F)F)ccc12 [Compound I-003]	>22.1	22.6	> 500			
Cl.NC(=O)c1cc([C@@H]2N[C@H](CO)[C@@H](O)[C@H]2O)n2nc(F)nc(N)c12 [Compound I-057]				56.8	434	0.131
OC[C@H]1N[C@@H](c2ccn3c(NO)ncnc23)[C@H](O)[C@@H]1O [Compound I-035]	>1.33	375	> 500			
N#C[C@@]1(c2ccc3c(N)ncnn23)O[C@H](CO)[C@@H](O)[C@H]1O [GS-441524, reference compound]		> 500				
Cl.Nc1ncnn2c([C@H]3N[C@@H](CO)[C@H](O)[C@@H]3O)cc(B(O)O)c12 [Compound I-032]	>1.38	361	> 500			
Cl.Nc1ncnn2c([C@@H]3N[C@H](CO)[C@@H](O)[C@H]3O)cc(B(O)O)c12 [Compound I-011]	11.2	6.7	75.1			
Cl.Nc1ncnn2c([C@@H]3N[C@H](CO)[C@@H](O)[C@H]3O)cc(-c3nccs3)c12 [Compound I-021]	>20.9	23.9	> 500			
N=C(N)c1cc([C@@H]2N[C@H](CO)[C@@H](O)[C@H]2O)n2ncnc(N)c12 [Compound I-017]				> 500	>11.1	44.9
Cc1nc(N)c2ccc([C@@H]3N[C@H](CO)[C@@H](O)[C@H]3O)n2n1.Cl.Cl [Compound I-005]	>2.13	235	> 500			
Cl.Nc1ncnn2c([C@@H]3N[C@H](CO)[C@@H](O)[C@H]3O)cc(-c3nc4ccccc4s3)c12 [Compound I-045]				96	25.4	3.78
Nc1ncnn2c([C@@H]3N[C@@H](CO)[C@@H](O)[C@H]3F)ccc12 [Compound I-009]	1.23	406	> 500			
Nc1ncnc2c([C@@H]3O[C@H](CO)[C@@H](O)[C@H]3F)c[nH]c12 [Compound I-002]	>105	4.77	> 500			
Cl.N/C(=N\O)c1cc([C@@H]2N[C@H](CO)[C@@H](O)[C@H]2O)n2nc(F)nc(N)c12 [Compound I-056]				> 500	>17.7	28.2
